{"source": "patent US6599920B2", "about": "“Naphthalene compounds, intermediates, formulations, and methods” (Eli Lilly and Company, priority 1996, dated 2003)", "key": {"ovariectomized rats": {"system": "ovariectomized rats", "experiment": "Ovariectomized rat model of postmenopausal hyperlipidemia (serum cholesterol, uterine weight, uterine eosinophil peroxidase)", "type": "in vivo", "description": "Experimental models of postmenopausal hyperlipidemia are known in the art. […] to this invention is the ovariectomized rat model which is detailed in U.S. Pat. No. 5,464,845. Data presented in Table 1 show comparative results among ovariectomized rats, rats treated with 17-α-ethynyl estradiol (EE2), and rats treated with certain compounds of this invention. […] This uterine response to estrogen is well recognized in the art. As expressed in the data below, estrogenicity also was assessed by evaluating the response of eosinophil infiltration into the uterus. […] The data presented in Table 1 reflect the response per treatment group. In accordance with the above procedures, compounds of the present invention and ethynyl estradiol (EE2) in 20% hydroxypropyl β-cyclodextrin are orally administered to test animals."}, "[1]": {"system": "MCF-7 breast adenocarcinoma cells", "experiment": "MCF-7 Proliferation Assay", "type": "cell-based", "details": "Homo sapiens, MCF7; MCF-7 cells, 48 hours with drug; read-out: IC50, inhibition of tumor cell growth (tritiated thymidine uptake)", "description": "MCF-7 breast adenocarcinoma cells (ATCC HTB 22) were maintained in MEM (minimal essential medium, phenol red-free, Sigma, St. Louis, Mo.) supplimented with 10% fetal bovine serum (FBS) (V/V), L-glutamine (2 mM), sodium pyruvate (1 mM), HEPES {(N-[2-hydroxyethyl]piperazine-N′-[2-ethanesulfonic acid]10 mm}, non-essential amino acids and bovine insulin (1 ug/mL) (maintenance medium). Ten days prior to assay, MCF-7 cells were switched to maintenance medium supplemented with 10% dextran coated charcoal stripped fetal bovine serum (DCC-FBS) assay medium) in place of 10% FBS to deplete internal stores of steroids. MCF-7 cells were removed from maintenance flasks using cell dissociation medium (Ca++/Mg++ free HBSS (phenol red-free) supplemented with 10 mM HEPES and 2 mM EDTA). Cells were washed twice with assay medium and adjusted to 80,000 cells/mL. Approximately […] (8,000 cells) were added to flat-bottom microculture wells (Costar 3596) and incubated at 37° C. in a 5% CO2 humidified incubator for 48 hours to allow for cell adherence and equilibration after transfer. Serial dilutions of drugs or DMSO as a diluent control were prepared in assay medium and […] to triplicate microcultures […]. […] Samples were counted by liquid scintillation using a Wallac BetaPlace β counter. […]"}, "[2]": {"details": "0.1 mg/kg PO, in 20% hydroxypropyl β-cyclodextrin"}}, "note": "pIC50: −log10 of the molar value. Marks after values point to notes of the source that are not given here.", "data": [{"smiles": "Cl.Oc1cccc(-c2ccc3cc(O)ccc3c2Cc2ccc(OCCN3CCCCC3)cc2)c1", "note": "[Ex. 2, [2-(3-Hydroxyphenyl)-6-hydroxynaphthalen-1-yl][4-[2-(1-piperidinyl)ethoxy]phenyl]methane Hydrochloride]", "values": [{"measurement": "Serum cholesterol (% Dec.), decrease versus ovariectomized controls", "setting": "ovariectomized rats; 0.1 mg/kg PO", "value": 6.6, "unit": "%"}, {"measurement": "Uterine EPO (Vmax), eosinophil peroxidase", "setting": "ovariectomized rats; 0.1 mg/kg PO", "value": 4.8}, {"measurement": "Uterine Wt. (% Inc.), uterine weight % increase versus the ovariectomized controls", "setting": "ovariectomized rats; [2]", "value": "37.6* %"}, {"measurement": "Serum cholesterol (% Dec.), decrease versus ovariectomized controls", "setting": "ovariectomized rats; 1 mg/kg PO", "value": 28.6, "unit": "%"}, {"measurement": "Uterine EPO (Vmax), eosinophil peroxidase", "setting": "ovariectomized rats; 1 mg/kg PO", "value": 4.8}, {"measurement": "Uterine Wt. (% Inc.), uterine weight % increase versus the ovariectomized controls", "setting": "ovariectomized rats; 1 mg/kg PO", "value": "44.7* %"}, {"measurement": "Serum cholesterol (% Dec.), decrease versus ovariectomized controls", "setting": "ovariectomized rats; 10 mg/kg PO", "value": "46.6* %"}, {"measurement": "Uterine EPO (Vmax), eosinophil peroxidase", "setting": "ovariectomized rats; 10 mg/kg PO", "value": 4.8}, {"measurement": "Uterine Wt. (% Inc.), uterine weight % increase versus the ovariectomized controls", "setting": "ovariectomized rats; 10 mg/kg PO", "value": "28.1* %"}]}, {"smiles": "COc1cccc(-c2ccc3cc(OC)ccc3c2Cc2ccc(OCCN3CCCCC3)cc2)c1.Cl", "note": "[Ex. 1, [2-(3-Methoxyphenyl)-6-methoxynaphthalen-1-yl][4-[2-(1-piperidinyl)ethoxy]phenyl]methane Hydrochloride]", "values": [{"measurement": "Serum cholesterol (% Dec.), decrease versus ovariectomized controls", "setting": "ovariectomized rats; 0.1 mg/kg PO", "value": "68.4* %"}, {"measurement": "Uterine EPO (Vmax), eosinophil peroxidase", "setting": "ovariectomized rats; 0.1 mg/kg PO", "value": 7.5}, {"measurement": "Uterine Wt. (% Inc.), uterine weight % increase versus the ovariectomized controls", "setting": "ovariectomized rats; [2]", "value": "30.9* %"}, {"measurement": "Serum cholesterol (% Dec.), decrease versus ovariectomized controls", "setting": "ovariectomized rats; 1 mg/kg PO", "value": "74.1* %"}, {"measurement": "Uterine EPO (Vmax), eosinophil peroxidase", "setting": "ovariectomized rats; 1 mg/kg PO", "value": 5.4}, {"measurement": "Uterine Wt. (% Inc.), uterine weight % increase versus the ovariectomized controls", "setting": "ovariectomized rats; 1 mg/kg PO", "value": "31.6* %"}, {"measurement": "Serum cholesterol (% Dec.), decrease versus ovariectomized controls", "setting": "ovariectomized rats; 10 mg/kg PO", "value": "65.0* %"}, {"measurement": "Uterine EPO (Vmax), eosinophil peroxidase", "setting": "ovariectomized rats; 10 mg/kg PO", "value": 6.0}, {"measurement": "Uterine Wt. (% Inc.), uterine weight % increase versus the ovariectomized controls", "setting": "ovariectomized rats; 10 mg/kg PO", "value": "37.2* %"}, {"measurement": "pIC50", "setting": "[1]", "value": 10.00}]}, {"smiles": "C#C[C@]1(O)CC[C@H]2[C@@H]3CCc4cc(O)ccc4[C@H]3CC[C@@]21C", "note": "[EE2, 17-α-Ethynyl-estradiol, reference compound]", "values": [{"measurement": "Serum cholesterol (% Dec.), decrease versus ovariectomized controls", "setting": "ovariectomized rats; 0.1 mg/kg PO", "value": "87.5* %"}, {"measurement": "Uterine EPO (Vmax), eosinophil peroxidase", "setting": "ovariectomized rats; 0.1 mg/kg PO", "value": "133.8*"}, {"measurement": "Uterine Wt. (% Inc.), uterine weight % increase versus the ovariectomized controls", "setting": "ovariectomized rats; [2]", "value": "128.0* %"}, {"measurement": "Effect on serum cholesterol", "setting": "ovariectomized rats; oral, compared to ovariectomized animals", "value": "caused a decrease in serum cholesterol"}, {"measurement": "Effect on uterine weight", "setting": "ovariectomized rats; oral, compared to ovariectomized animals or EE2", "value": "substantially greater than the uterine weight of the ovariectomized animals"}, {"measurement": "Eosinophil infiltration into the uterus", "setting": "ovariectomized rats; oral, stromal layer of uteri", "value": "substantial and expected increase in eosinophil infiltration"}]}]}
